Assay results from patent publication US7622469B2, “2,4-diamino-1,3,5-triazine derivatives” (Hamari Chemicals, Ltd., priority 2002, dated 2009).

Columns and labels:
Assay in all cases: Antibacterial activity test (MIC)
Conditions in all cases: Mueller-Hinton Broth, 37° C., 20 to 24 hours
MRSA 97-115 = assay type: cell-based, methicillin-resistant Staphylococcus aureus
Procedure: (§1) Regarding compounds obtained in respective Working Examples, in order to investigate antibacterial activity, minimal inhibitory concentration (MIC) was determined according to a standard method of Japanese Society of Chemotherapy.
(§2) As a test bacterium, nine kinds of S. aureus 209PJC, MRSA 97-115, MRSA KM 97-53, MRSA KM97-108, VRE 49, E. coli NIHJ JC-2, P. aeruginosa PAO-1, P. aeruginosa No. 12, P. aeruginosa KM97-5 were used and, as a medium, Mueller-Hinton Broth (DIFCO) was used. One platinum loop of a test bacterium was inoculated into 20 ml of a medium, and static culture was carried out at 37° C. for 16 to 20 hours, and then each bacterium species was diluted with a sterilized physiological saline to 10^5/ml, which was used as a test bacterium solution.
(§3) Then, each compound was dissolved in methanol, subjected to ½ stepwise dilution with a medium to prepare a medium for measuring sensitivity, and each 2 ml was dispensed into a test tube. A compound concentration in a medium was adjusted to 100 μg/ml and its 2^n-fold (n=−10 to 1).
(§4) Numerical values in Tables represent MIC expressed in μg/ml unit.

E. coli NIHJ JC-2 = assay type: cell-based
Procedure: as §1, §2, §3, §4

P. aeruginosa PAO-1 = assay type: cell-based
Procedure: as §1, §2, §3, §4

S. aureus 209PJC = assay type: cell-based
Procedure: as §1, §2, §3, §4

Structure (SMILES): CCCCCCCCCCCCC1N=C(N)N=C(N)N1CCc1ccc(OC)cc1.Cl (racemic) [15(2)]
- minimal inhibitory concentration (MIC) (MRSA 97-115): 1.6 µg/mL
- minimal inhibitory concentration (MIC) (E. coli NIHJ JC-2): 50 µg/mL
- minimal inhibitory concentration (MIC) (P. aeruginosa PAO-1): 50 µg/mL
- minimal inhibitory concentration (MIC) (S. aureus 209PJC): 0.4 µg/mL

Structure (SMILES): CCCCCCCCCCCCC1N=C(N)NC(NCc2ccc(OC)cc2)=N1.Cl (racemic) [16(1)]
- minimal inhibitory concentration (MIC) (MRSA 97-115): 1.6 µg/mL
- minimal inhibitory concentration (MIC) (E. coli NIHJ JC-2): 25 µg/mL
- minimal inhibitory concentration (MIC) (P. aeruginosa PAO-1): 50 µg/mL
- minimal inhibitory concentration (MIC) (S. aureus 209PJC): 0.4 µg/mL

Structure (SMILES): CCCCCCCCCCCCC1N=C(N)N=C(N)N1Cc1ccc(OC)cc1.Cl (racemic) [16(2)]
- minimal inhibitory concentration (MIC) (MRSA 97-115): 1.6 µg/mL
- minimal inhibitory concentration (MIC) (E. coli NIHJ JC-2): 25 µg/mL
- minimal inhibitory concentration (MIC) (P. aeruginosa PAO-1): 25 µg/mL
- minimal inhibitory concentration (MIC) (S. aureus 209PJC): 0.4 µg/mL

Structure (SMILES): CCCCCCCCCCC1N=C(N)NC(NCc2ccc(C(F)(F)F)cc2)=N1.Cl (racemic) [18(1)]
- minimal inhibitory concentration (MIC) (MRSA 97-115): 0.8 µg/mL
- minimal inhibitory concentration (MIC) (E. coli NIHJ JC-2): 6.3 µg/mL
- minimal inhibitory concentration (MIC) (P. aeruginosa PAO-1): 25 µg/mL
- minimal inhibitory concentration (MIC) (S. aureus 209PJC): 0.4 µg/mL

Structure (SMILES): CCCCCCCCCCC1N=C(N)N=C(N)N1Cc1ccc(C(F)(F)F)cc1.Cl (racemic) [18(2)]
- minimal inhibitory concentration (MIC) (MRSA 97-115): 1.6 µg/mL
- minimal inhibitory concentration (MIC) (E. coli NIHJ JC-2): 6.3 µg/mL
- minimal inhibitory concentration (MIC) (P. aeruginosa PAO-1): 12.5 µg/mL
- minimal inhibitory concentration (MIC) (S. aureus 209PJC): 0.8 µg/mL

Structure (SMILES): CCCCCCCCCCCC1N=C(N)N=C(N)N1c1ccc(F)cc1F.Cl (racemic) [compound 35]
- minimal inhibitory concentration (MIC) (MRSA 97-115): 3.1 µg/mL
- minimal inhibitory concentration (MIC) (E. coli NIHJ JC-2): 25 µg/mL
- minimal inhibitory concentration (MIC) (P. aeruginosa PAO-1): 25 µg/mL
- minimal inhibitory concentration (MIC) (S. aureus 209PJC): 0.8 µg/mL

Structure (SMILES): CCCCCCCCCCCC1N=C(N)NC(Nc2ccc(F)cc2F)=N1.Cl (racemic) [compound 36]
- minimal inhibitory concentration (MIC) (MRSA 97-115): 1.6 µg/mL
- minimal inhibitory concentration (MIC) (E. coli NIHJ JC-2): >100 µg/mL
- minimal inhibitory concentration (MIC) (P. aeruginosa PAO-1): >100 µg/mL
- minimal inhibitory concentration (MIC) (S. aureus 209PJC): 0.8 µg/mL

Structure (SMILES): CCCCCCCCCCCCC1N=C(N)NC(NCc2ccccc2)=N1.Cl (racemic) [compound 44]
- minimal inhibitory concentration (MIC) (MRSA 97-115): 0.8 µg/mL
- minimal inhibitory concentration (MIC) (E. coli NIHJ JC-2): 1.6 µg/mL
- minimal inhibitory concentration (MIC) (P. aeruginosa PAO-1): 12.5 µg/mL
- minimal inhibitory concentration (MIC) (S. aureus 209PJC): 0.2 µg/mL

Structure (SMILES): CCCCCCCCCCCC1(C)N=C(N)N=C(N)N1c1ccc(Cl)cc1.Cl (racemic) [compound 45]
- minimal inhibitory concentration (MIC) (MRSA 97-115): 0.4 µg/mL
- minimal inhibitory concentration (MIC) (E. coli NIHJ JC-2): >100 µg/mL
- minimal inhibitory concentration (MIC) (P. aeruginosa PAO-1): >100 µg/mL
- minimal inhibitory concentration (MIC) (S. aureus 209PJC): 0.4 µg/mL

Structure (SMILES): CCCCCCCCCCCC1(C)N=C(N)NC(NCc2ccccc2)=N1.Cl (racemic) [compound 46]
- minimal inhibitory concentration (MIC) (MRSA 97-115): 0.4 µg/mL
- minimal inhibitory concentration (MIC) (E. coli NIHJ JC-2): 12.5 µg/mL
- minimal inhibitory concentration (MIC) (P. aeruginosa PAO-1): 25 µg/mL
- minimal inhibitory concentration (MIC) (S. aureus 209PJC): 0.4 µg/mL

Structure (SMILES): CCCCCCCCNC1=NC(C)(C)N=C(NCc2ccc(Cl)c(Cl)c2)N1.Cl [12(1)]
- minimal inhibitory concentration (MIC) (MRSA 97-115): 0.8 µg/mL
- minimal inhibitory concentration (MIC) (E. coli NIHJ JC-2): 25 µg/mL
- minimal inhibitory concentration (MIC) (P. aeruginosa PAO-1): 25 µg/mL
- minimal inhibitory concentration (MIC) (S. aureus 209PJC): 0.4 µg/mL

Structure (SMILES): CCCCCCCCNC1=NC(C)(C)N(Cc2ccc(Cl)c(Cl)c2)C(N)=N1.Cl [12(2)]
- minimal inhibitory concentration (MIC) (MRSA 97-115): 1.6 µg/mL
- minimal inhibitory concentration (MIC) (E. coli NIHJ JC-2): 50 µg/mL
- minimal inhibitory concentration (MIC) (P. aeruginosa PAO-1): 50 µg/mL
- minimal inhibitory concentration (MIC) (S. aureus 209PJC): 0.8 µg/mL

Structure (SMILES): CCCCCCCCCCNC1=NC(C)(C)N=C(NCc2ccccc2)N1.O=C(O)CC(=O)O [41(2)]
- minimal inhibitory concentration (MIC) (MRSA 97-115): 0.8 µg/mL
- minimal inhibitory concentration (MIC) (E. coli NIHJ JC-2): 6.3 µg/mL
- minimal inhibitory concentration (MIC) (P. aeruginosa PAO-1): 12.5 µg/mL
- minimal inhibitory concentration (MIC) (S. aureus 209PJC): 0.4 µg/mL

Structure (SMILES): CCCCCCCCCCNC1=NC(C)(C)N=C(NCc2ccc(OC)cc2)N1.Cl [Example 1]
- minimal inhibitory concentration (MIC) (MRSA 97-115): 0.4 µg/mL
- minimal inhibitory concentration (MIC) (E. coli NIHJ JC-2): 12.5 µg/mL
- minimal inhibitory concentration (MIC) (P. aeruginosa PAO-1): 25 µg/mL
- minimal inhibitory concentration (MIC) (S. aureus 209PJC): 0.4 µg/mL

Structure (SMILES): CCCCCCCCCCNC1=NC(C)(C)N=C(NCc2ccc(OC)c(OC)c2)N1.Cl [compound 3]
- minimal inhibitory concentration (MIC) (MRSA 97-115): 1.6 µg/mL
- minimal inhibitory concentration (MIC) (E. coli NIHJ JC-2): 25 µg/mL
- minimal inhibitory concentration (MIC) (S. aureus 209PJC): 1.6 µg/mL

Structure (SMILES): CCCCCCCCCNC1=NC(C)(C)N=C(NCCc2ccc(OC)cc2)N1.Cl [compound 5]
- minimal inhibitory concentration (MIC) (MRSA 97-115): 0.9 µg/mL
- minimal inhibitory concentration (MIC) (S. aureus 209PJC): 0.5 µg/mL

Structure (SMILES): CCCCCCCCCCCNC1=NC(C)(C)N=C(NCCc2ccc(OC)cc2)N1.Cl [compound 6]
- minimal inhibitory concentration (MIC) (MRSA 97-115): 1.8 µg/mL
- minimal inhibitory concentration (MIC) (E. coli NIHJ JC-2): 57 µg/mL
- minimal inhibitory concentration (MIC) (P. aeruginosa PAO-1): 114 µg/mL
- minimal inhibitory concentration (MIC) (S. aureus 209PJC): 0.9 µg/mL
